From publication PMC2787382 (The Journal of Biological Chemistry, 2009)

Legend:
[1] = biological target: dP2XA (Dictyostelium discoideum, UniProt Q86JM7); experiment: two-electrode voltage clamp, Xenopus oocytes, peak current; assay type: cell-based
[2] = biological target: T1, dP2XB (Dictyostelium discoideum, UniProt Q553Y1); experiment: as above; assay type: cell-based
T1 sequence (Q553Y1 1-369): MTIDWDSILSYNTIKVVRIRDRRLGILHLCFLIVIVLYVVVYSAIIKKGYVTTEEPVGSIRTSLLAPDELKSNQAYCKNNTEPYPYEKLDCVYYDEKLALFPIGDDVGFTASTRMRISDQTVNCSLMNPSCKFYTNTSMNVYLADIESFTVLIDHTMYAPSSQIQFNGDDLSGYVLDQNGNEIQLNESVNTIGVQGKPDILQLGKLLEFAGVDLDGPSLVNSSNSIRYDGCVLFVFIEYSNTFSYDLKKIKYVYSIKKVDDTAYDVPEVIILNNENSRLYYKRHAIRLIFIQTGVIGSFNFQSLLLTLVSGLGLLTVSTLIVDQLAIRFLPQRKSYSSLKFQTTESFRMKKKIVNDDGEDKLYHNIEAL

[3] = biological target: T2, dP2XE (Dictyostelium discoideum, UniProt Q54JH4); experiment: as above; assay type: cell-based; settings: weak partial agonist; ND98K+, pH 6.2, −70 mV, room temperature
T2 sequence (Q54JH4 1-388): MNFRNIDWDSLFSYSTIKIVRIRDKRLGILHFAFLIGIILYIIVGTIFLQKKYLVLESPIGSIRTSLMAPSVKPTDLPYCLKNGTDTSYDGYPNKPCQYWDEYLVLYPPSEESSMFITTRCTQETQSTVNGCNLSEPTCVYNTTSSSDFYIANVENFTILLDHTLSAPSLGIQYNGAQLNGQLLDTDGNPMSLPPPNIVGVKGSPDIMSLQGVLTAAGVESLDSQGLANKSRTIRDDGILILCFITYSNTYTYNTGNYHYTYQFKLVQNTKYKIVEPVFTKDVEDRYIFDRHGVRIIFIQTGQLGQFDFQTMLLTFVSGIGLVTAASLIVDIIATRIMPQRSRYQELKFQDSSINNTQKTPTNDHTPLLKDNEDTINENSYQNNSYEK

[4] = biological target: T2, dP2XE; experiment: cell-based

dP2XA, sequence (Q86JM7 whole entry): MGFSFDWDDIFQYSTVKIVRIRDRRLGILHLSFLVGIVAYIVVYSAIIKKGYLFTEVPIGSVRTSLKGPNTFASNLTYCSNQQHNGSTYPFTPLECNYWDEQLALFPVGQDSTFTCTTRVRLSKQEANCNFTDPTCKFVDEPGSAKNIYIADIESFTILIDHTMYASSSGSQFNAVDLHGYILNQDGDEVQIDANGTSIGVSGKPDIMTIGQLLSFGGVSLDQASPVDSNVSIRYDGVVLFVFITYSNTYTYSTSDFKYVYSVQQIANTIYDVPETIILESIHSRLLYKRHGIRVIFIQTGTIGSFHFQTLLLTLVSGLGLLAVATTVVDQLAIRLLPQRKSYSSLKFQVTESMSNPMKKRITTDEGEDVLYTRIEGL

EC50 [1]	EC50 [2]	maximal response, % that of ATP [3]	EC50 [4]	Structure (SMILES)
3.1 µM	85 µM	22.3 ± 6.4%		Nc1ncnc2c1ncn2[C@@H]1O[C@H](COP(=O)(O)OP(=O)(O)NP(=O)(O)O)[C@@H](O)[C@H]1O [β,γ-Imido-ATP]
97 µM	266 µM		511 µM	Nc1ncnc2c1ncn2[C@@H]1O[C@H](COP(=O)(O)OP(=O)(O)OP(=O)(O)O)[C@@H](O)[C@H]1O [ATP]
